According to PMC10545732, “Structure-based drug discovery of a corticotropin-releasing hormone receptor 1 antagonist using an X-ray free-electron laser” (Experimental & Molecular Medicine, 2023):

Key:
CYP2C9 = molecular target: T1, CYP2C9 (Homo sapiens, UniProt P11712); assay: CYP inhibition assay CYP2C9 (diclofenac 4-hydroxylase); type: in vitro ADME; conditions: 10 μM, human liver microsomes, n = 3
T1 construct: 0.25 mg/mL human liver microsomes; from tissue; host or cells: human liver microsomes
Protocol: (§1) Phenacetin O-demethylase, diclofenac 4-hydroxylase, S-mephenytoin 4-hydroxylase, dextromethorphan O-demethylase, and midazolam 1’-hydroxylase activities were determined as probe activities for CYP1A2, CYP2C9, CYP2C19, CYP2D6, and CYP3A4, respectively, using cocktail incubation. […] The cocktail incubation mixtures consisted of 0.25 mg/mL human liver microsomes, 0.1 M phosphate buffer (pH 7.4), an NADPH regeneration system, and inhibitors (CRF1R antagonist compounds, 10 µM) in a total volume of 100 μL. The final volume of the organic solvents in the incubation mixture was 1% (v/v). […] All incubations were performed in triplicate, and the mean values were used for analysis. The samples were then centrifuged at 15,000 rpm for 5 min at 4 °C. […] The CYP-mediated activities in the presence of inhibitors were expressed as percentages of the corresponding control values.

CYP2D6 = CYP2D6 (Homo sapiens, UniProt P10635); assay: CYP inhibition assay CYP2D6 (dextromethorphan O-demethylase); conditions: 10 μM, human liver microsomes, n = 3
Protocol: as §1

CORT serum levels = assay: Serum CORT level after TST (LC-MS); type: in vivo, mice; conditions: 30 mg/kg orally for 3 days, immediately after TST
Protocol: The mice were anesthetized via intraperitoneal injections of 2,2,2-tribromoethanol (300 mg/kg, Sigma-Aldrich) immediately after the TST and before blood from the heart was sampled. Blood samples were collected in plastic tubes and incubated at room temperature for at least 2 h. The sera were extracted after centrifugation at 13,000×g for 10 min at 4 °C. CORT levels were determined via LC‒MS analysis. Serum (10 µL) was mixed with 20 μL of an internal standard solution (d4-cortisol) to prepare the samples. Subsequently, 100 μL of acetonitrile was added, and the mixture was centrifuged at 16,000×g for 10 min for protein precipitation. The supernatants (60 μL) were transferred into an autosampler vial, and 30 μL of water was added for efficient separation via high-performance liquid chromatography (HPLC). LC‒MS was performed with a triple quadrupole mass spectrometer coupled with HPLC using a C18 reversed-phase column. CORT levels were determined using a calibration curve constructed using CORT-spiked mouse serum. Serum samples (20 μL) were analyzed using a commercially available ELISA kit for ACTH (ab263880, Abcam) to measure ACTH serum levels.

hCMECs/D3 = assay: In vitro BBB permeability assay; type: in vitro ADME, human
Protocol: Human cerebral microvascular endothelial cells (hCMECs/D3, SCC066; Sigma-Aldrich) were used to assess the permeability of CRF1R antagonists across the BBB. hCMECs were seeded on Falcon^TM cell culture inserts (08-770, Fisher Scientific) with 0.4 μm pore sizes precoated with collagen type I from rat tails (354236, Corning) at a density of 50,000 cells/mL in endothelial cell growth medium-2 (EGM-2, CC-3162; Lonza). The medium was changed with EGM-2 every three to four days for proliferation and with EGM-2 containing 2.5% human serum (SLBX6020, Sigma-Aldrich) for differentiation. Cell culture inserts were transferred into 24-well plates containing 700 μL of EGM-2 in each well (basolateral compartment) for the permeability assay. The medium in the inserts (apical compartment) was then replaced with 300 μL EGM-2 containing 10 μM BMK-C203 or BMK-C205. Apical and basolateral compartments were collected after a 12-h incubation at 37 °C, and drug concentrations were measured using HPLC. For sample preparation, 50 μL of the sample was mixed with 10 μL of an internal standard solution (d4-cortisol). Subsequently, 50 μL of acetonitrile was added, and the mixture was centrifuged at 16,000×g for 10 min for protein precipitation. The supernatants were used for LC‒MS analysis with a triple quadrupole mass spectrometer coupled with HPLC using a C18 reversed-phase column. The concentration of the antagonists was determined using a calibration curve. The permeability coefficient (P) was calculated according to Pardridge et al.[34]. The permeability-surface area product (PS, in cm^3/s) was divided by the filter surface area A (in cm^2) using Eq. (1) as follows:1 Pcm/s=Vd×△Ma/A×[…]×△t where Vd is the volume in the donor compartment in cm^3, ΔMa is the total amount of the compound in the […] compartment after t seconds, Md is the donor amount, Δt is the incubation time, and A is the filter area in cm^2.

CYP2D6, sequence (P10635 whole entry): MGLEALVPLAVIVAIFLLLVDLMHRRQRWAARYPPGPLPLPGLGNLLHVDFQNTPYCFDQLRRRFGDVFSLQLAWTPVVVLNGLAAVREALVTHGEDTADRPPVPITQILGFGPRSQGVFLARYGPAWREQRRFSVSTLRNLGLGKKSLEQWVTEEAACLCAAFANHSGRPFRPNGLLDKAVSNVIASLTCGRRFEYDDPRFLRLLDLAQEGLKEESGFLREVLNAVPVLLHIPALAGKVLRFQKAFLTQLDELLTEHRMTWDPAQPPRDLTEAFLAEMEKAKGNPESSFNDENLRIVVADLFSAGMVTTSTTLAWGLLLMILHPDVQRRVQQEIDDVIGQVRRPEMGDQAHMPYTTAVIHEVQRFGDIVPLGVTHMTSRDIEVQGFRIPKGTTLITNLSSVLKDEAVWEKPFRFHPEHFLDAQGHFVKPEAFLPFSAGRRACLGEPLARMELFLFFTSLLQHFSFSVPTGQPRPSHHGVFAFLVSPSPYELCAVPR
T1 sequence (P11712 whole entry): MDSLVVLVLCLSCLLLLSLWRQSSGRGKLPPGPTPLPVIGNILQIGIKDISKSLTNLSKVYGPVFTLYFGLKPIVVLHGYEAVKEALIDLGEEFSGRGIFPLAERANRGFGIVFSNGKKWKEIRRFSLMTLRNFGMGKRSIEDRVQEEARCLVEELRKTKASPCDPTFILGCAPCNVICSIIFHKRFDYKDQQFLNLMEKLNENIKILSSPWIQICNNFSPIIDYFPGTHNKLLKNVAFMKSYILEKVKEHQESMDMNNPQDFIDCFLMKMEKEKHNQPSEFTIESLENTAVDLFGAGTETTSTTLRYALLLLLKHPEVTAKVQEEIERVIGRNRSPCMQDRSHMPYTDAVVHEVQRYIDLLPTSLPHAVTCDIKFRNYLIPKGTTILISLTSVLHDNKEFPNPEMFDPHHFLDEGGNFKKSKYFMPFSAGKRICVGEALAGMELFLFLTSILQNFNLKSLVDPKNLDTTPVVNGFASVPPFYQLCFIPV

permeability coefficient relative to BMK-C203 (hCMECs/D3)	Structure (SMILES)	CYP2C9, percentage of control activity (CYP2C9)	CYP2D6, percentage of control activity (CYP2D6)	serum CORT level versus vehicle (CORT serum levels)
–	COc1cc(Br)cc(OC)c1-c1c(C)nn2c(N(CCCC(F)(F)F)CCCC(F)(F)F)nc(C)nc12 [BMK-C203]	94.9 ± 1.9 percentage of control activity	> 100 ± 4.0 percentage of control activity	did not significantly affect
seven times higher	CCCCN(CC1CC1)c1nc(C)nc2c(-c3c(OC)cc(Br)cc3OC)c(C)nn12 [BMK-C205]	89.8 ± 2.4 percentage of control activity	> 100 ± 3.8 percentage of control activity	decreased
